Values joined by “and” are separate entries in the source; they are usually repeats but may differ in a detail not shown here. Equal values may be shown once.
Tested on: Normal human fibroblasts
Test: Production of hyaluronic acid on human fibroblast cultures
Type: cell-based
Details: EGF 10 ng/ml (positive reference), 72-hour incubation
Procedure: B)—Evaluation of the Moisturizing Effect of the Compositions According to the Invention—Measurement of the Production of Hyaluronic Acid on Human Fibroblast Cultures:
Normal human fibroblasts are seeded and cultured in 96-well plates in 10% FCS (fetal calf serum) culture medium, at 37° C. in a humid atmosphere containing 5% CO2. […] Each condition is performed in n=4. At the end of a 72-hour incubation, the amount of hyaluronic acid excreted into the culture supernatant is measured using a specific assay kit (Hyaluronan Duo Set Assay Development Kit—Biotechne); and the amount of protein present in the cell lawns is measured using the BC Assay kit (Interchim). The amount of hyaluronic acid assayed is then expressed relative to the amount of protein per well. Means and standard deviations are calculated per condition and the level of hyaluronic acid production is evaluated by comparing the test conditions with the control condition (untreated cells).

## EGF: epidermal growth factor, the positive reference for the model
Culture supernatant, n=4
  Amount of hyaluronic acid produced, Mean: 32.29 ng/μg protein and 25.28 ng/μg protein
Vs untreated cells
  Amount of hyaluronic acid produced, Difference relative to the control: 164%
